According to patent US20240368133A1, “Compounds for the Treatment of Pain, in Particular, Neuropathic Pain, and/or Other Diseases or Disorders that are Associated with AT2R and/or AT2R Mediated Signaling” (Confo Therapeutics N.V., priority 2021, published 2024):

Legend:
human AT2R fused to Cb23 = human AT2R fused to Cb23 (Homo sapiens, UniProt P50052); test: Radioligand binding assay, displacement of 125I-[Sar1, Ile8]-Angiotensin II, hAT2R Cb23; settings: displacement of 125I-[Sar1, Ile8]-Angiotensin II, human AT2R fused to Cb23, HEK-293 cell membrane preparations; read-out: Binding affinity on hAT2R_Cb23 IC50
Chain of human AT2R fused to Cb23 (P50052 whole entry, looked up, the tested form may be a part): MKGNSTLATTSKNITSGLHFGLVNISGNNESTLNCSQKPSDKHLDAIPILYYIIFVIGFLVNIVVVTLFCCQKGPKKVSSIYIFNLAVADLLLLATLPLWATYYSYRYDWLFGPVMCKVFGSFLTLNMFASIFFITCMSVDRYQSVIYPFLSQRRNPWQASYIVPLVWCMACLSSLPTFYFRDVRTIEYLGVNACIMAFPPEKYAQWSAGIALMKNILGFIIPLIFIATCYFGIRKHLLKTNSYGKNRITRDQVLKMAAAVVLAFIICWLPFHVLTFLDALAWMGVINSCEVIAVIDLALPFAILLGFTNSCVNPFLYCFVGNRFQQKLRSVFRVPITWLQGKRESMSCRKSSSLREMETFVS
Procedure: (§1) All synthesized ligands were evaluated in a radioligand assay by displacing ^125I-[Sar1, Ile8]-Angiotensin II (Perkin Elmer, NEX248050UC) from human AT2R fused to Cb23 or human/rodent/cynomolgus/minipig/dog WT AT2R in HEK-293 cells membrane preparations, using C21 (Vicore Pharma) and Angiotensin II (endogenous ligand) as reference. The affinity was determined using an eight-point dose-response curve, each point performed in duplicates. The compounds were also evaluated in a counterscreen binding assay for displacement of ^125I-[Sar1, Ile8]-Angiotensin II binding to human AT1R in HEK-293 cell membranes. For AT1R, the percent displacement was determined at 1 μM and […] (in duplicates) or using an eight-point dose-response curve, each point performed in duplicates with Candesartan and Losartan used as reference.
(§2) For the AT2R/AT1R binding assays, cell membranes, expressing AT2R_Cb23, AT2R or AT1R, were incubated with 0.05 nM ^125I-[Sarl, Ile8]-Ang II. The ligand competition assay was performed in a total volume of 100 μL assay buffer (50 mM Tris, 5 mM MgCl2, 1 mM EDTA, 0.1% BSA, pH 7.4), at concentrations ranging from […] to 10 μM. For each experiment, each ligand concentration was tested in duplicate. Non-specific binding (NSB) was determined by the inclusion of 10 μM unlabeled [Sarl]-Ang II (Sigma Aldrich). The reaction was initiated by the addition of radioligand, after which the plates were incubated at 25° C. for one hour. The reaction was terminated by rapid filtration using a vacuum harvester, applying six washes with 100 μL of ice-cold wash buffer (50 mM Tris.HCl, pH 7.4). The filter plates GF/C (Perkin Elmer) were pre-soaked in 0.5% PEI. The residual amount of radioactivity was determined via liquid scintillation counting. IC50 values, representing the concentration at which each ligand displaced 50% of ^125I-[Sarl, Ile8]-Ang II, were calculated using GraphPad Prism 7.02 by applying a Non-linear regression equation (variable slope, four parameters) on the data. The obtained values serve as affinity estimates for each ligand and their ability to compete against the radioligand for binding with AT2R or AT1R, respectively.

human AT1R = human AT1R (Homo sapiens (Human), UniProt P30556); test: Counterscreen radioligand binding assay, displacement of 125I-[Sar1, Ile8]-Angiotensin II, hAT1R WT; settings: for inhibition at 1 µM / inhibition at 10 µM: 125I-[Sar1, Ile8]-Ang II, semi-quantitative score; for inhibition at 1 µM: compound at 1 μM, read-out: % Displaced radioligand at 1 μM; for inhibition at 10 µM: compound at 10 μM, read-out: % Displaced radioligand at 10 μM; for IC50: HEK-293 cell membranes, read-out: Binding affinity On hAT1R IC50
Chain of human AT1R (P30556 whole entry): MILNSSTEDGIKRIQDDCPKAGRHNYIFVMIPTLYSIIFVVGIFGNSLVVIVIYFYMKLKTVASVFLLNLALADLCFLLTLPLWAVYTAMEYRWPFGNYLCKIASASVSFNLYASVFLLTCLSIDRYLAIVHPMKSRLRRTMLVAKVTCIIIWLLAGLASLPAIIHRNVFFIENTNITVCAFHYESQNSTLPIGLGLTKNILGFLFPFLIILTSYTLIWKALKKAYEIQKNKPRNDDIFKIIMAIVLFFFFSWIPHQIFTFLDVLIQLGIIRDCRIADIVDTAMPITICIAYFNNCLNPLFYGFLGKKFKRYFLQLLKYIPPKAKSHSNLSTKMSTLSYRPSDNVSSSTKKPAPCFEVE
Procedure: as §1, §2

SMILES	IC50 (human AT2R fused to Cb23)	inhibition at 1 µM (human AT1R)	inhibition at 10 µM (human AT1R)	IC50 (human AT1R)
CC(C)=Cc1ccc(-c2nn[nH]n2)c(N2CCN(Cc3nc4ccccc4n3C)CC2)c1 [Compound A-21, 1-methyl-2-[[4-[5-(2-methylprop-1-enyl)-2-(2H-tetrazol-5-yl)phen-yl]piperazin-1-yl]-methyl]benzimid-azole]	0.488 µM	< 30%	< 30%	41.7 µM
COc1ccc(-c2nn[nH]n2)c(N2CCN(Cc3nc4ccccc4n3C)CC2)c1 [Compound A-22, 2-[[4-[5-methoxy-2-(2H-tetrazol-5-yl)phenyl]piperazin-1-yl]methyl]-1-methyl-benzimidazole]	19.7 µM	< 30%	< 30%	
CCOc1ccc(-c2nn[nH]n2)c(N2CCN(Cc3nc4ccccc4n3C)CC2)c1 [Compound A-23, 2-[[4-[5-ethoxy-2-(2H-tetrazol-5-yl)-phenyl]piperazin-1-yl]methyl]-1-meth-yl-benzimidazole]	2.37 µM	< 30%	< 30%	
CC(C)Oc1ccc(-c2nn[nH]n2)c(N2CCC(Cc3nc4ccccc4n3C)CC2)c1 [Compound A-25, 2-[[1-[5-isopropoxy-2-(2H-tetrazol-5-yl)phenyl]-4-piperidyl]methyl]-1-methyl-benzimid-azole]	8.31 µM	< 30%	< 30%	
O=c1[nH]c(CN2CCN(c3cc(C4CC4)ccc3-c3nn[nH]n3)CC2)nc2ccccc12 [Compound A-28, 2-[[4-[5-cyclopropyl-2-(2H-tetrazol-5-yl)phenyl]piperazin-1-yl]methyl]-3H-quinazolin-4-one]	3.56 µM	< 30%	< 30%	
CCc1ccc(C(=O)NS(=O)(=O)CC)c(N2CCN(Cc3nc4ccccc4s3)CC2)c1 [Compound A-33, 2-[4-(1,3-benzothiazol-2-ylmethyl)piperazin-1-yl]-4-ethyl-N-ethylsulfonyl-benzamide]	3.07 µM	< 30%	< 30%	
CCS(=O)(=O)NC(=O)c1ccc(C(C)C)cc1N1CCN(Cc2nc3ccccc3s2)CC1 [Compound A-34, 2-[4-(1,3-benzo-thiazol-2-ylmethyl)-piperazin-1-yl]-N-ethylsulfonyl-4-iso-propyl-benzamide]	0.484 µM	< 30%	< 30%	
CCS(=O)(=O)NC(=O)c1ccc(C2CC2)cc1N1CCN(Cc2nc3ccccc3s2)CC1 [Compound A-35, 2-[4-(1,3-benzothiazol-2-ylmethyl)piperazin-1-yl]-4-cyclopropyl-N-ethylsulfonyl-benzamide]	0.602 µM	< 30%	< 30%	31.4 µM
CCS(=O)(=O)NC(=O)c1ccc(CC(C)C)cc1N1CCN(Cc2nc3ccccc3s2)CC1 [Compound A-36, 2-[4-(1,3-benzo-thiazol-2-ylmethyl)-piperazin-1-yl]-N-ethylsulfonyl-4-isobutyl-benzamide]	1.42 µM	< 30%	< 30%	
CCS(=O)(=O)NC(=O)c1ccc(OC)cc1N1CCN(Cc2nc3ccccc3s2)CC1 [Compound A-37, 2-[4-(1,3-benzothiazol-2-ylmethyl)piperazin-1-yl]-N-ethylsulfonyl-4-methoxy-benzamide]	6.58 µM	< 30%	< 30%	
CCOc1ccc(C(=O)NS(=O)(=O)CC)c(N2CCN(Cc3nc4ccccc4s3)CC2)c1 [Compound A-38, 2-[4-(1,3-benzothiazol-2-ylmethyl)piperazin-1-yl]-4-ethoxy-N-ethylsulfonyl-benzamide]	2.4 µM	< 30%	30 to 50%	13.6 µM
CCS(=O)(=O)NC(=O)c1ccc(OC(C)C)cc1CN1CCN(c2nc3ccccc3s2)CC1 [Compound A-39, 2-[[4-(1,3-benzothiazol-2-yl)piperazin-1-yl]methyl]-N-ethylsulfonyl-4-isopropoxy-benzamide]	2.81 µM	< 30%	< 30%	
